Literature values in US20170266323A1, “NEAR-INFRARED-II FLUORESCENT AGENTS, METHODS OF MAKING NEAR-INFRARED-II FLUORESCENT AGENTS, AND METHODS OF USING WATER-SOLUBLE NIR-II FLUORESCENT AGENTS” (The Board of Trustees of the Leland Stanford Junior …, priority 2013, published 2017).

Assays:
[1] = in DCM, rhodamine B in ethanol as reference, reported by one study

fluorescence quantum efficiency [1]: ~1.7±0.5%
solubility in water: water insoluble
Structure (SMILES): ClC1=C(C=Cc2cc(-c3ccccc3)[s+]c(-c3ccccc3)c2)CCCC1=CC=C1C=C(c2ccccc2)SC(c2ccccc2)=C1.F[B-](F)(F)F [IR-1061, 4-[2-[2-Chloro-3-[(2,6-diphenyl-4H-thiopyran-4-ylidene)ethylidene]-1-cyclohexen-1-yl]ethenyl]-2,6-diphenylthiopyrylium tetrafluoroborate]
